Laboratory results published in the supplement of paper PMC4862054.

Experiments:
Test in all cases: normalised response (% of control), CellTox Green; higher = less cell death (100 = DMSO, 0 = benzethonium chloride kill control)
Conditions in all cases: incubation time: 72 h
[1] = test system: HCC1143
Summary of the method: (§1)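 Breast cancer cell lines (20 µl suspension) were seeded into 384-well plates holding compound at 5 concentrations in 10-fold steps over a compound-specific 10,000-fold range, then incubated 72 h. CellTox Green fluorescence (485/520 nm) was read first, then CellTiter-Glo luminescence after 10 min at room temperature. Each plate was normalised to 0.1 % DMSO (100) and a positive kill control (0). Each value is the normalised signal at a single concentration of the series.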

[2] = test system: MDA-MB-231
Summary of the method: as §1

[3] = test system: DU-4475
Summary of the method: as §1

[4] = test system: CAL-120
Summary of the method: as §1

[5] = test system: CAL-85-1
Summary of the method: as §1

[6] = test system: MDA-MB-453
Summary of the method: as §1

[7] = test system: CAL-51
Summary of the method: as §1

[8] = test system: HCC1599
Summary of the method: as §1

[9] = test system: MCF-10A
Summary of the method: as §1

[10] = test system: HCC1937
Summary of the method: as §1

[11] = test system: HDQ-P1
Summary of the method: as §1

[12] = test system: MDA-MB-436
Summary of the method: as §1

[13] = test system: BT-474
Summary of the method: as §1

[14] = test system: BT-549
Summary of the method: as §1

[15] = test system: Hs578T
Summary of the method: as §1

[16] = test system: MDA-MB-468
Summary of the method: as §1

[17] = test system: MFM-223
Summary of the method: as §1

[18] = test system: CAL-148
Summary of the method: as §1

| Structure (SMILES) | normalised response [1] [%] | normalised response [2] [%] | normalised response [3] [%] | normalised response [4] [%] | normalised response [5] [%] | normalised response [6] [%] | normalised response [7] [%] | normalised response [8] [%] | normalised response [9] [%] | normalised response [10] [%] | normalised response [11] [%] | normalised response [12] [%] | normalised response [13] [%] | normalised response [14] [%] | normalised response [15] [%] | normalised response [16] [%] | normalised response [17] [%] | normalised response [18] [%] |
| --- | --- | --- | --- | --- | --- | --- | --- | --- | --- | --- | --- | --- | --- | --- | --- | --- | --- | --- |
| COc1ccc(S(=O)(=O)Nc2cccnc2Nc2ccc(O)cc2)cc1 [ABT-751] (1000 nM) | 98.9 | 53.4 | 93.9 | 87.2 | 35.1 | 102 | 110 | 87.8 | 81.3 | -57.9 | 90.5 | 57.2 | 86.1 | 40.4 | 78.8 | -16.6 | 83.6 | – |
| CC(O)(CS(=O)(=O)c1ccc(F)cc1)C(=O)Nc1ccc(C#N)c(C(F)(F)F)c1 (stereo unspecified) [Bicalutamide] (10000 nM) | 134 | 125 | 104 | 103 | 67.6 | 99 | 92.2 | 91.5 | 106 | 112 | 66.2 | 78.1 | 103 | 116 | 86 | – | 100 | 105 |
| CC(=O)[C@]1(O)Cc2c(O)c3c(c(O)c2[C@@H](O[C@H]2C[C@H](N)[C@H](O)[C@H](C)O2)C1)C(=O)c1ccccc1C3=O [Idarubicin] (100 nM) | 102 | 114 | 95.2 | 98.8 | 86.2 | 108 | 70.2 | 101 | 112 | 110 | – | 40.4 | 72.2 | 98.7 | 103 | 49.4 | 99.2 | 36 |
| COc1cc(Nc2c(C#N)cnc3cc(OCCCN4CCN(C)CC4)c(OC)cc23)c(Cl)cc1Cl [Bosutinib] (1000 nM) | 116 | 93.6 | 101 | 104 | 93.7 | 114 | 84.4 | 100 | 93.7 | 110 | 93.3 | 107 | 94.2 | 106 | 78 | 164 | – | 92.5 |
| CCNC(=O)CCC/C=C\C[C@@H]1[C@@H](/C=C/[C@@H](O)CCc2ccccc2)[C@H](O)C[C@@H]1O [Bimatoprost] (5500 nM) | 117 | 110 | 99.7 | 98.4 | 106 | 98 | 112 | 102 | 86.9 | 104 | 79.9 | 77 | 57 | 121 | 61.1 | – | 97.4 | 100 |
| CC(C)(C)NC(=O)[C@H]1CC[C@H]2[C@@H]3CC[C@H]4NC(=O)C=C[C@]4(C)[C@H]3CC[C@]12C [Finasteride] (10000 nM) | 81.5 | 113 | 102 | 106 | 91.2 | 85.4 | 100 | 97.7 | 94.1 | 77.4 | 102 | 101 | 100 | 98.9 | – | 174 | – | 103 |
| O=C(CCCCCCC(=O)Nc1ccccc1)NO [Vorinostat] (1000 nM) | 100 | 83.2 | 94.5 | 95.1 | 95.5 | 93.9 | 96.6 | 91.8 | 89.9 | 122 | – | 73.5 | 96.8 | 115 | 78.8 | 103 | 97.3 | 100 |
| CC(C)C[C@H](NC(=O)[C@@H](COC(C)(C)C)NC(=O)[C@H](Cc1ccc(O)cc1)NC(=O)[C@H](CO)NC(=O)[C@H](Cc1c[nH]c2ccccc12)NC(=O)[C@H](Cc1cnc[nH]1)NC(=O)[C@@H]1CCC(=O)N1)C(=O)N[C@@H](CCCNC(=N)N)C(=O)N1CCC[C@H]1C(=O)NNC(N)=O [Goserelin] (10000 nM) | – | 94.9 | 98.9 | 98 | 114 | 95 | 104 | 95.5 | 75.6 | 88 | 62.5 | 90.3 | 84.2 | 107 | – | 181 | – | 104 |
| CO[C@@]12[C@H](COC(N)=O)C3=C(C(=O)C(C)=C(N)C3=O)N1C[C@@H]1N[C@@H]12 [Mitomycin C] (10000 nM) | 36.6 | 101 | 94.7 | 98.4 | 102 | 104 | -36.9 | 99.1 | 85.4 | 108 | 71.8 | 90.2 | 101 | 99.5 | 77.6 | 5.66 | – | 42.2 |
| C/C(=C\c1csc(C)n1)[C@@H]1C[C@@H]2O[C@]2(C)CCC[C@H](C)[C@H](O)[C@@H](C)C(=O)C(C)(C)[C@@H](O)CC(=O)N1 [Ixabepilone] (100 nM) | 102 | 102 | 103 | 105 | 95.9 | 107 | 35.9 | 102 | 87.7 | – | – | 106 | 100 | 65.6 | 95.5 | 83 | 98.8 | 102 |
